Assays:
[1] = tested on: HT-29 cells; assay: Cell survival assay (antiproliferative IC50); type: cell-based, human
Description: Human colon carcinoma COLO205 and HT-29 cell lines (American Type Culture Collection (ATTC), Manassas, Va.) and the leukemia cell line HL-60 were maintained at 37° C. in 5% CO2 air in RPMI 1640 medium supplemented with 10% heat-inactivated fetal bovine serum (Gibco BRL, Grand Island, N.Y.), 100 units/mL penicillin, 100 μg/mL streptomycin and 2 mM 1-glutamine. The human gastric carcinoma AGS cell line (CCRC 60102), obtained from the Food Industry Research and Development Institute (Hsinchu, Taiwan), was maintained as described above, except that DMEM/F 12 was used as the medium rather than the RPMI 1640 medium. The human breast carcinoma MCF-7 cell line MCF-7 (ATTC) was cultured in RPMI 1640 medium supplemented with 5% fetal calf serum at 37° C. in a humidified atmosphere of 5% CO2 in air. The mouse macrophage cell line RAW 264.7 was maintained in RPMI 1640 supplemented with 100 U/ml penicillin, 100 μg/ml streptomycin, and 10% heat-inactivated fetal calf serum.
Cancer cells (2×10^5) were plated in 12-well Petri dishes. The next day, the medium was changed and treated with different concentration of the test compounds or compositions for 24 h. Where individual compounds were to be tested, stock solutions of the compound was prepared to contain 200 μM of the individual hydroxylated or non-hydroxylated PMF in dimethylsulfoxide (DMSO). Control cells were treated with DMSO to a final concentration of 0.05% (v/v). Depending on the objective of the particular experiment, cells were treating with test compound or composition for 1, 3 or 6 days. At the end of incubation, cells were harvested for cell count using a hemocytometer and measuring the cellular total nucleic acid content with the CyQUANT Cell Proliferation Assay Kit (Molecular Probes).
(§1) The PMF compounds were assayed in vitro for cell growth inhibition and for their ability to induce apoptosis in various human cancer cells, including HL-60, AGS, COLO 205, and HT-29 cells, using methods described in Section 8.4 above. Antiproliferative (IC50) and apoptosis-inducing activity (AC50) of PMFs in the HL-60, AGS, COLO 205, and HT-29 cells are reported in Table 9, where *P<0.05, **P<0.01 and ***P<0.001 indicate statistically significant differences from the control group.

[2] = tested on: AGS cells; assay: Apoptotic ratio by propidium iodide flow cytometry (AC50); type: cell-based, human; conditions: AGS cells; read-out: Apoptosis-inducing AC50
Description: (§2) The human cancer cells (2×10^5) were cultured in 60-mm Petri dishes and incubated for 24 h. After treated with test compounds for 24 h, the cells were then harvested, washed with PBS resuspended in 200 μL of PBS, and fixed in 800 μL of iced 100% ethanol at −20° C. After being left to stand overnight, the cell pellets were collected by centrifugation, resuspended in 1 mL of hypotonic buffer (0.5% Triton X-100 in PBS and 0.5 μg/mL RNase) and incubated at 37° C. for 30 min. Next, 1 mL of propidium iodide solution (50 μg/mL) was added, and the mixture was allowed to stand on ice for 30 min. Fluorescence emitted from the propidium iodide-DNA complex was quantitated after excitation of the fluorescent dye by FACScan cytometry (Becton Dickinson, San Jose, Calif.).
(§3) 1 N PMF and 6 N PMF compositions containing hydroxylated PMFs, prepared as described in Section 8.3 above, 70% PMF OPE and 5,6,7,8,3′,4′-hexamethoxyflavone (nobiletin) were tested for antiproliferative activity and apoptosis-inducing activity in HL-60, AGS and COLO205 cells as described in Section 8.4 above. Antiproliferative and apoptosis-inducing activities were derived as IC50 values and AC50, values, respectively, where AC50 is the concentration required for 50% apoptosis.
as §1

[3] = tested on: COLO205 cells; assay: as above; type: cell-based, human; conditions: COLO205 cells; read-out: Apoptosis-inducing AC50
Description: as §2, §3, §1

[4] = tested on: HL-60 cells; assay: as above; type: cell-based, human; conditions: HL-60 cells; read-out: Apoptosis-inducing AC50
Description: as §2, §3, §1

[5] = tested on: HL-60 cells; assay: Cell cycle distribution by flow cytometry; type: cell-based, human; conditions: 24 h, Table 10
Description: as §2
The effects of the hydrolyzed PMF-enriched compositions, nobiletin and 70% PMF OPE on cell cycle distribution were studied, following the procedures described in Section 8.4. Results for cell cycle distribution in HL-60 cells, COLO205 cells and AGS cells are provided in Table 5, Table 6 and Table 7, respectively. […] In HL-60 cells, G2/M arrest predominated in cells treated with 6N PMF concentrations ≧5 μM and with 1N PMF concentrations ≧25 μM.
Compounds A-K were evaluated in terms of their effects in arresting cell cycle progression by observing cell cycle phase distribution in cells treated with the compounds. Cells were treated with 5, 10, 25, 50, and 100 μM of one of compound A-K or DMSO (control) for 24 h and subjected to flow cytometric analysis after staining their DNA, as described above.

[6] = tested on: LPS-induced nitrite production in RAW 264.7 macrophages; assay: Nitrite assay (Griess reaction); type: cell-based, mouse; conditions: 100 ng/ml LPS, PMF 30 μM, 24 h, FIG. 3
Description: Compounds or compositions were tested for anti-inflammatory effects by monitoring nitrite production in LPS-activated RAW264.7 cells. After treating the cells with LPS or LPS and test substance, supernatants were harvested and the amount of nitrite, an indicator of NO synthesis, was measured by use of the Griess reaction. Briefly, supernatants (100 μl) were mixed with the same volume of Griess reagent (1% sulphanilamide in 5% phosphoric acid and 0.1% naphthylethylenediamine dihydrochloride in water) in duplicate on 96-well plates. After incubation at room temperature for 10 min, absorbance at 570 nm was measured with a ELISA reader (Thermo Labsystems Multiskan Ascent, Finland).
The anti-inflammatory effects of compounds A-K were tested by measuring nitrite production in LPS-activated RAW 264.7 macrophages, as described in Section 8.4 above. Macrophages were treated with 100 ng/ml LPS alone or LPS and PMF (10 or 30 μM) for 24 h. At the end of incubation time, 100 μl of the culture medium was collected for the nitrite assay.

Question: How did the IC50 [1] turn out when `COc1ccc(-c2oc3c(OC)c(OC)c(OC)c(OC)c3c(=O)c2O)cc1OC` [B, 3-hydroxy-5,6,7,8,3′,4-hexamethoxyflavone] was run?
Answer: The IC50 was 63.63 ± 0.49 µM.

Question: What about the AC50 [2] of the same molecule?
Answer: Its AC50 is > 100 µM.

Question: What about the AC50 [3] of the same molecule?
Answer: The AC50 was > 100 µM.

Question: What about the AC50 [4] of the same molecule?
Answer: The AC50 was 56.5 ± 2.39 µM.

Question: What about the “Cell Cycle Distribution G0/G1” value ([5]; 5 μM) of the same molecule?
Answer: The value was 42.63 ± 0.85.

Question: What about the “Cell Cycle Distribution G2/M” value ([5]; 5 μM) of the same molecule?
Answer: The value was 9.99 ± 1.70.

Question: And the “Cell Cycle Distribution S” value ([5]; 5 μM)?
Answer: The value was 47.38 ± 0.42.

Question: And the “Cell Cycle Distribution G0/G1” value ([5]; 10 μM)?
Answer: The value was 40.76 ± 0.28.

Question: And the “Cell Cycle Distribution G2/M” value ([5]; 10 μM)?
Answer: The value was 0.23 ± 0.42.

Question: What about the “Cell Cycle Distribution S” value ([5]; 10 μM) of the same molecule?
Answer: The value was 59.01 ± 0.78.

Question: What about the “Cell Cycle Distribution G0/G1” value ([5]; 25 μM) of the same molecule?
Answer: The value was 47.74 ± 0.71.

Question: What about the “Cell Cycle Distribution G2/M” value ([5]; 25 μM) of the same molecule?
Answer: The value was 0.00 ± 0.64.

Question: What about the “Cell Cycle Distribution S” value ([5]; 25 μM) of the same molecule?
Answer: The value was 52.26 ± 0.64.

Question: What about the “Cell Cycle Distribution G0/G1” value ([5]; 50 μM) of the same molecule?
Answer: The value was 41.48 ± 0.85.

Question: What about the “Cell Cycle Distribution G2/M” value ([5]; 50 μM) of the same molecule?
Answer: Its value is 0.00 ± 0.57.

Question: And the “Cell Cycle Distribution S” value ([5]; 50 μM)?
Answer: The value was 58.52 ± 0.42.

Question: What about the “Cell Cycle Distribution G0/G1” value ([5]; 100 μM) of the same molecule?
Answer: Its value is 49.63 ± 0.28.

Question: And the “Cell Cycle Distribution G2/M” value ([5]; 100 μM)?
Answer: Its value is 0.51 ± 0.64.

Question: What about the “Cell Cycle Distribution S” value ([5]; 100 μM) of the same molecule?
Answer: Its value is 43.86 ± 0.21.

Question: And the “Rank of inhibitory potency on LPS-induced nitrite production” value [6]?
Answer: The value was “H>G>K>C>I>B”.

— patent US20140039044A1, “Hydroxylated Polymethoxyflavone Compositions” (WLLGEN, INC., priority 2006, published 2014)
